# Reference: patent US11442059B2, “Method for treating a chronic itch condition by administering small molecule MrgprX4 antagonists” (The Johns Hopkins University, priority 2017, dated 2022)
# Target: T1, mouse Mrgpra1 (Mus musculus, UniProt Q91WW5)
# T1 construct: expressed in transfected cells; host or cells: HEK293
# T1 sequence (Q91WW5 1-304): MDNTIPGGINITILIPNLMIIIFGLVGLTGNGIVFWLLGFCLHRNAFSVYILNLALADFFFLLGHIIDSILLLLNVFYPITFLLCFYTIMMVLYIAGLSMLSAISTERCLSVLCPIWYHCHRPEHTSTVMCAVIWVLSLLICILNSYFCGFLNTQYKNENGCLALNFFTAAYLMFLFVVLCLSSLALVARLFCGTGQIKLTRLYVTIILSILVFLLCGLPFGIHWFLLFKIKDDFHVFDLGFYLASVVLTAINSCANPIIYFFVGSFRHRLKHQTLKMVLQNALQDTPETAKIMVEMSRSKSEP
# Experiment: Ca2+ imaging / EC50 determination in HEK293 cells expressing Mrgpra1
# Format: cell-based
# Experimental: Lamotrigine (LTG), allopurinol, carbamazepine and oxcarbazepine (all from Sigma) were prepared fresh on the day of the experiment. These drugs were dissolved into dimethyl sulfoxide (DMSO) first, and then were diluted at least 10000× into calcium imaging buffer before use. The final concentrations of drugs for each experiment were indicated in the corresponding figure legend.
# In initial experiments, HEK293 cells were plated on 100 μg/ml poly-D-lysine coated glass cover slips, and transiently transfected with vector containing Mrgprs gene, after 24-48 hours of culture, cells were loaded with Fura 2-acetomethoxy ester calcium indicator (0.5 μM, Molecular Probes) along with pluronic F-127 dispersing agent (0.1%, Molecular Probes) for 30 minutes in the dark at 37° C., then washed with calcium imaging buffer (CIB; NaCl 125 mM, KCl 3 mM, CaCl2 2.5 mM, MgCl2 0.6 mM, HEPES 10 mM, glucose 20 mM, NaHCO3 1.2 mM, sucrose 20 mM, brought to pH 7.4 with NaOH). Drugs were added to Fura 2-loaded cells and intracellular free calcium was measured using 340 nm and 380 nm excitation wavelengths with emission measured at 520 nm with a microscope based imaging system (Nikon Eclipse TE200). Changes in emission fluorescence ratios at 340/380 nm excitation were continuously monitored at 1 second intervals. Later, experiments were performed using Mrgpra1-GFP, Mrgprc11-GFP and MRGPRX4-GFP stable cell lines to confirm the findings obtained from the transiently expressing cells.
# Mrgpra1 or both wild-type and mutant MRGPRX4 stably expressed HEK cells were plated overnight in 100 μl culture media on 96-well plates. […] After 1 hour of incubation at 37° C., cells were allowed to recover for 10 minutes in the dark at room temperature prior to performing intracellular calcium mobilization assay in a FLEXSTATION® multi-mode plate reader (Molecular Devices). […] Responses were determined by subtracting the minimum signal (at the basal level before adding the drug) from the maximum signal (obtained after stimulating with the drug). […]
compound,measurement,setting,value
"Nc1nnc(-c2cccc(Cl)c2Cl)c(N)n1 [LTG, Lamotrigine]",EC50,"HEK293 cells, Ca2+ assay",~30 µM
same,activation of mouse Mrgpra1 (Ca2+ imaging),Mrgprs individually expressed in HEK293 cells,specifically activated
